Source: PubChem BioAssay (NCI)
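Dose response: 5 concentrations. Exposure: 48 h. Format: 96-well plates. Endpoint: linear interpolation; highest concentration if not reached. GI50 is the concentration that inhibits growth by half. Definition used: TGI = concentration required for complete inhibition of growth.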

What was measured:
Experiment in all cases: NCI-60 cell line screen, 48 h
[1] = system: SF-295 CNS
[2] = system: HL-60(TB) leukemia
[3] = system: NCI-H460 lung
[4] = system: HT29 colon
[5] = system: OVCAR-5 ovarian
[6] = system: UO-31 renal
[7] = system: SF-539 CNS
[8] = system: SK-MEL-5 melanoma
[9] = system: HOP-62 NSCLC
[10] = system: MDA-MB-231 breast

| SMILES | GI50 [1] [µM] | TGI [1] [µM] | GI50 [2] [µM] | TGI [2] [µM] | GI50 [3] [µM] | TGI [3] [µM] | GI50 [4] [µM] | TGI [4] [µM] | GI50 [5] [µM] | TGI [5] [µM] | GI50 [6] [µM] | TGI [6] [µM] | GI50 [7] [µM] | TGI [7] [µM] | GI50 [8] [µM] | TGI [8] [µM] | GI50 [9] [µM] | TGI [9] [µM] | GI50 [10] [µM] | TGI [10] [µM] |
| --- | --- | --- | --- | --- | --- | --- | --- | --- | --- | --- | --- | --- | --- | --- | --- | --- | --- | --- | --- | --- |
| CCCN(CCC)c1ccc(/C=N/NC(=O)c2cccnc2)c(Cl)c1 | 3.39 | 16.7 | 4.91 | 32.4 | 3.63 | 17.2 | 4.71 | 17.8 | 1.22 | 4.73 | 14.3 | 38.2 | 11.6 | 26.5 | 6.09 | 19 | 10.3 | 28.6 | 12.4 | 28.5 |
| Cc1ccc(S(=O)(=O)N2CCc3ccc(O)c4c3C2Cc2cc(Cl)ccc2-4)cc1 (configuration not stated) | 1.37 | 6.12 | 1.05 | 4.06 | 1.03 | 3.74 | 5.61 | 10.8 | 2.02 | 16.5 | 1.52 | 14.4 | 0.792 | 2.83 | 1.55 | 5.1 | 1.56 | 5.65 | 1.21 | 4.74 |
| COC(=O)C1=C(C(=O)OC)C23C=C(C)C1C2=C(C)C1(CC1)[C@@](C)(O)C3=O (some centres not stated) | 0.282 |  | 1.55 | 15.9 | 0.203 | 1.19 | 0.337 | 16.9 | 0.365 | 8.89 | 0.185 | 0.464 | 0.337 | 1.56 | 0.164 | 0.314 | 0.267 | 0.754 | 0.309 | 1.56 |
| CCOC(=O)c1sc(Nc2ccc(Cl)cc2)nc1C | 1.69 | 3.57 | 3.16 | 7.17 | 2.34 | 6.31 | 2.05 | 4.09 | 2.08 | 6.63 | 1.15 | 2.5 | 1.66 | 3.72 | 1.44 | 2.76 | 1.89 | 5.06 | 1.08 | 2.61 |
| C[C@@]12CCC(=O)C=C1CC[C@H]1C2=CC[C@]2(C)C1CC[C@@]2(C)O (some centres not stated) |  | > 100 |  | 77.9 |  | > 100 |  | > 100 |  | > 100 |  | > 100 |  | > 100 |  | > 100 |  | > 100 |  | > 100 |
| CCCc1nc2c(C)cc(-c3nc4ccccc4n3C)cc2n1Cc1ccc(-c2ccccc2C(=O)O)cc1 | 34.4 | > 100 | 28.8 | 77.4 | 32.5 | > 100 | 35.8 | > 100 | > 100 | > 100 | 19.3 | 51.5 | 46.5 | > 100 | 25.8 | > 100 | 43.5 | > 100 | 30.3 | > 100 |
| N#Cc1ccnc(N2C(=O)CC[C@H]2C(=O)N(c2cncc(F)c2)[C@H](C(=O)NC2CC(F)(F)C2)c2ccccc2Cl)c1 | > 100 | > 100 | > 100 | > 100 | 73.3 | > 100 | 56.2 | > 100 | > 100 | > 100 | 18.3 | > 100 | > 100 | > 100 | > 100 | > 100 | > 100 | > 100 | 50.7 | > 100 |
| CCOC(=O)c1c(C(F)(F)F)n([O-])c2ccc(OC)cc2[n+]1=O | 2.61 | 8.79 | 3.01 | 9.63 | 3.8 | 15.7 | 7.89 | > 100 | 5.49 | 48.6 | 6.68 | > 100 | 7.97 | 27 | 1.7 | 3.31 | 3.89 | 21.9 | 5.38 | 51.6 |
| COc1ccc(-c2nc(-c3nc4ccc(OC)cc4[nH]3)cc3c2[nH]c2ccccc23)cc1 |  |  | 4.08 | > 100 | 2.05 | > 100 | 3.46 | > 100 | > 100 | > 100 | 1.66 | > 100 | 9.29 | > 100 | 2.18 | > 100 | 4.24 | > 100 | 8.51 | > 100 |
| COc1ccc(NC(=O)c2sc3nc(C)c(C(O)c4ccccc4)cc3c2N)cc1 (configuration not stated) | 1.25 | 18.2 | 2.76 | 10.3 | 0.357 | 1.65 | 2.81 | 88.8 | 4.74 | > 100 | 2.62 | > 100 | 2.24 | 6.65 | 1.66 | 4.04 | 3.67 | > 100 | 2.96 | > 100 |
| Cc1[nH]c(=O)[nH]c(=O)c1CO |  |  | > 100 | > 100 | > 100 | > 100 | > 100 | > 100 | > 100 | > 100 | > 100 | > 100 | > 100 | > 100 | > 100 | > 100 | > 100 | > 100 | > 100 | > 100 |
| COc1cc(-c2cc(-c3nc4ccc(Cl)cc4[nH]3)[nH]n2)cc(OC)c1OC | 2.35 | 11.2 | 2.49 | 7.47 | 3.65 | 14 | 4.14 | 16.4 | 12.1 | 30.2 | 2.64 | 11.2 | 4.66 | 18.3 | 1.62 | 3.48 | 3.11 | 10.7 | 3.94 | 24.3 |
| COc1cc(/C=C2\COc3ccc(O)c(O)c3C2=O)cc(OC)c1 | 3.01 | 9.09 | 0.842 | 11.2 | 1.81 | 4.7 | 2.78 | 8.39 | 3.03 | 11.5 | 1.02 | 2.29 | 1.84 | 3.95 | 1.72 | 3.13 | 3.66 | 11.6 | 2.47 | 10.6 |
| NCc1nnn(Cc2ccccc2)c1N |  | > 100 |  | > 100 |  | > 100 |  | > 100 |  | > 100 |  |  |  | > 100 |  | > 100 |  | > 100 |  | > 100 |
| NCCC(O)(P(=O)(O)O)P(=O)(O)O |  |  | > 100 | > 100 | > 100 | > 100 | > 100 | > 100 | > 100 | > 100 | > 100 | > 100 | > 100 | > 100 | > 100 | > 100 | > 100 | > 100 | > 100 | > 100 |
| CN(C)CCCc1c[nH]c2ccccc12 |  | > 100 |  | > 100 |  | > 100 |  | > 100 |  | > 100 |  | > 100 |  | > 100 |  | > 100 |  | > 100 |  | > 100 |
| CS(=O)(=O)Nc1ccc(Nc2c3ccccc3nc3ccccc23)cc1 |  | 14.6 |  | 9.19 |  | 6.95 |  | 20.5 |  | 21 |  | 12.5 |  | 20.2 |  | 10.4 |  | 13 |  | 17.8 |
| Nc1c(C(=O)Nc2ccccc2Cl)sc2nc3c(cc12)CCCCCC3 | 2.47 | 13.6 | 2.73 | > 100 | 3.32 | 13.9 | 2.39 | 13.4 | 6.88 | > 100 | 2.19 | 5.01 | 2.65 | 8.12 | 3.91 | > 100 |  |  | 2.24 | 14.1 |
| CCC(=C/[C@H](C)C/C=C/C(C)=C/[C@@H](C)C(=O)[C@@H](C)[C@H](O)[C@@H](C)CC)/C=C/[C@H]1OC(=O)C=C[C@H]1C | < 0.01 | 1.36 | < 0.01 | < 0.04 | < 0.01 | 1.1 | < 0.01 | 1.2 | < 0.01 | 1.35 | < 0.01 | 1.15 | < 0.01 | 0.439 | < 0.01 | 0.0437 | < 0.01 | 1.13 | < 0.01 | 1.5 |
| CCC(C)C(NC(=O)C1CCCN1C(=O)C(NC(=O)C(C)N)C(C)C)C(N)=O (configuration not stated) | > 100 | > 100 | > 100 | > 100 | > 100 | > 100 | > 100 | > 100 |  |  | > 100 | > 100 |  | > 100 | > 100 | > 100 | > 100 | > 100 | > 100 | > 100 |
